Source: patent US9403850B2, “Beta-lactamase inhibitors” (priority 2013, dated 2016)

What was measured:
[1] = tested on: P. aeruginosa Ps296 expressing VIM-2; assay: Broth microdilution MIC assay, partner meropenem; type: cell-based; settings: Pseudomonas aeruginosa, read-out: MIC of Exemplary Compounds in presence of fixed β-lactams, Fixed Mero, P. aerug. Ps296 VIM-2
[2] = tested on: K. pneumoniae 156319 expressing KPC-3; assay: Broth microdilution MIC assay, partner meropenem; type: cell-based; settings: Klebsiella pneumoniae, read-out: MIC of Exemplary Compounds in presence of fixed β-lactams, Fixed Mero, K.P. 156319 KPC-3
[3] = tested on: E. cloacae 144200 expressing Class C P99 AmpC; assay: Broth microdilution MIC assay, partner ceftazidime;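 also: ceftazidime held fixed at 4 µg/mL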; type: cell-based; settings: Enterobacter cloacae, read-out: MIC of Exemplary Compounds in presence of fixed β-lactams, Fixed CAZ, E. cl. 144200 p99 AmpC
[4] = target: T1, VIM-2 (Escherichia coli, UniProt Q5U7L7); assay: β-Lactamase enzyme inhibition assay, VIM-2 (nitrocefin substrate); type: biochemical; settings: nitrocefin substrate 100 μM, 15 min preincubation at 37° C.; read-out: IC50, Class B VIM-2
T1 construct: made in house; host or cells: E. coli BL21(DE3)
Method: For Vim-2 metallo β-lactamase, the procedure was identical with the following exceptions, first the protein was not pH adjusted to pH 5 with 50 mM sodium acetate, second, the chromatography step was changed to a 5 ml Q sepharose anion exchange column pre-equilibrated with 50 mM Hepes pH 7.5, and elution of the protein was achieved by a linear gradient of NaCl (0-600 mM). Finally, the VIM-2 purification required a second run (3rd step) on the Q sepharose anion exchange column to achieve acceptable purity (>90%).
An equal volume of diluted enzyme stock was added, and the plates were incubated at 37° C. for 15 min. Nitrocefin was used as substrate for p99 AmpC, VIM-2 and OXA-1 and dispensed into each well at a final concentration of 100 μM. Absorbance at 486 nm was immediately monitored for 10 min using a Biotek Powerwave XS2 microplate spectrophotometer using the GEN5 softweare package (Biotek Instruments, Winooski Vt.). In an analogous fashion, imipenem was used as substrate for Kpc-2 and Cefotaxime was used for SHV-5, while changes in absorbance upon hydrolysis of the β-lactam ring were monitored at 300 nm and 260 nm respectively in UV-transparent 96-well microtiter assay plates. Maximum rates of hydrolysis were compared to those in control wells (without inhibitors), and percentages of enzyme inhibition were calculated for each concentration of inhibitor. The concentration of inhibitor needed to reduce the initial rate of hydrolysis of substrate by 50% (IC50) was calculated as the residual activity of β-lactamase at 486 nm using GraFit version 7 kinetics software package (Erithacus Software, Surrey, UK).
Using the methodology described above, examples of the current invention were evaluated for their ability to inhibit β-lactamase enzymes from all four Ambler classifications (A through D). […] NT=Not tested.

[5] = tested on: S. aureus MSSA-7 producing penicillinase PC-1; assay: Broth microdilution MIC assay, partner piperacillin; type: cell-based; settings: Staphylococcus aureus, fixed piperacillin 4 μg/mL, read-out: MIC of Exemplary Compounds in presence of fixed β-lactams, Fixed Pip, S. aureus MSSA-7 PC-1
[6] = tested on: E. coli ESBL4 expressing CTX-M-15; assay: Broth microdilution MIC assay, partner ceftazidime;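 also: ceftazidime held fixed at 4 µg/mL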; type: cell-based; settings: Escherichia coli, read-out: MIC of Exemplary Compounds in presence of fixed β-lactams, Fixed CAZ, E. coli ESBL4 CTX-M-15
[7] = tested on: K. pneumoniae A-1797 expressing KPC-2 and VIM-4; assay: Broth microdilution MIC assay, partner meropenem; type: cell-based; settings: Klebsiella pneumoniae, read-out: MIC of Exemplary Compounds in presence of fixed β-lactams, Fixed Mero, K.P. A-1797 KPC-2 VIM-4

Structure (SMILES)	MIC [1]	MIC [2]	MIC [3]	IC50 [4]	MIC [5]	MIC [6]	MIC [7]
O=C(N[C@H]1Cc2cccc(C(=O)O)c2OB1O)c1cnc2[nH]ccc2c1 [Example 35, (R)-2-Hydroxy-3-[(1H-pyrrolo[2,3-b]pyridine-5-carbonyl)-amino]-3,4-dihydro-2H-benzo[e][1,2]oxaborinine-8-carboxylic acid]	< 4 µg/mL	< 4 µg/mL	< 4 µg/mL	100 to 1000 nM	< 4 µg/mL	< 4 µg/mL	> 32 µg/mL
N=C(N)N1Cc2ccc(CC(=O)N[C@H]3Cc4cccc(C(=O)O)c4OB3O)cc2C1 [Example 37, (3R)-3-[[2-(2-carbamimidoylisoindolin-5-yl)acetyl]amino]-2-hydroxy-3,4-dihydro-1,2-benzoxaborinine-8-carboxylic acid]	< 4 µg/mL	< 4 µg/mL	< 4 µg/mL	100 to 1000 nM	< 4 µg/mL	< 4 µg/mL	> 32 µg/mL
O=C(Cc1ccc(O)c(O)c1)N[C@H]1Cc2cccc(C(=O)O)c2OB1O [Example 38, (R)-3-(2-(3,4-dihydroxyphenyl)acetamido)-2-hydroxy-3,4-dihydro-2H-benzo[e][1,2]oxaborinine-8-carboxylic acid]	8 to 32 µg/mL	< 4 µg/mL	< 4 µg/mL	100 to 1000 nM	< 4 µg/mL	< 4 µg/mL	8 to 32 µg/mL
O=C(N[C@H]1Cc2cccc(C(=O)O)c2OB1O)c1ccc(O)c(O)c1 [Example 39, (R)-3-(3,4-dihydroxybenzamido)-2-hydroxy-3,4-dihydro-2H-benzo[e][1,2]oxaborinine-8-carboxylic acid]	8 to 32 µg/mL	< 4 µg/mL	< 4 µg/mL	100 to 1000 nM	8 to 32 µg/mL	< 4 µg/mL	8 to 32 µg/mL
NCCOc1ccc(C(=O)N[C@H]2Cc3cccc(C(=O)O)c3OB2O)cc1O [Example 40, (R)-3-(4-(2-aminoethoxy)-3-hydroxybenzamido)-2-hydroxy-3,4-dihydro-2H-benzo[e][1,2]oxaborinine-8-carboxylic acid]	< 4 µg/mL	< 4 µg/mL	< 4 µg/mL	< 100 nM	< 4 µg/mL	< 4 µg/mL	< 4 µg/mL
NCCn1ccc2ccc(C(=O)N[C@H]3Cc4cccc(C(=O)O)c4OB3O)cc21 [Example 41, (R)-3-{[1-(2-Amino-ethyl)-1H-indole-6-carbonyl]-amino}-2-hydroxy-3,4-dihydro-2H-benzo[e][1,2]oxaborinine-8-carboxylic acid]	8 to 32 µg/mL	> 32 µg/mL	< 4 µg/mL	< 100 nM	< 4 µg/mL	< 4 µg/mL	< 4 µg/mL
NCCn1ccc2c(C(=O)N[C@H]3Cc4cccc(C(=O)O)c4OB3O)cccc21 [Example 42, (R)-3-{[1-(2-Amino-ethyl)-1H-indole-4-carbonyl]-amino}-2-hydroxy-3,4-dihydro-2H-benzo[e][1,2]oxaborinine-8-carboxylic acid]	< 4 µg/mL	> 32 µg/mL	< 4 µg/mL	100 to 1000 nM	< 4 µg/mL	< 4 µg/mL	8 to 32 µg/mL
Cn1ccc2ccc(C(=O)N[C@H]3Cc4cccc(C(=O)O)c4OB3O)cc21 [Example 43, (R)-2-Hydroxy-3-[(1-methyl-1H-indole-6-carbonyl)-amino]-3,4-dihydro-2H-benzo[e][1,2]oxaborinine-8-carboxylic acid]	> 32 µg/mL	> 32 µg/mL	< 4 µg/mL	100 to 1000 nM	< 4 µg/mL	< 4 µg/mL	> 32 µg/mL
